This is an account of results in patent publication US10669284B2, “Fused thiazolopyrimidine derivatives as MNKS inhibitors” (LIFEARC, priority 2015, dated 2020).

The target in test [1] is T1, BMX (Homo sapiens, UniProt P51813).
T1 sequence (P51813 1-675): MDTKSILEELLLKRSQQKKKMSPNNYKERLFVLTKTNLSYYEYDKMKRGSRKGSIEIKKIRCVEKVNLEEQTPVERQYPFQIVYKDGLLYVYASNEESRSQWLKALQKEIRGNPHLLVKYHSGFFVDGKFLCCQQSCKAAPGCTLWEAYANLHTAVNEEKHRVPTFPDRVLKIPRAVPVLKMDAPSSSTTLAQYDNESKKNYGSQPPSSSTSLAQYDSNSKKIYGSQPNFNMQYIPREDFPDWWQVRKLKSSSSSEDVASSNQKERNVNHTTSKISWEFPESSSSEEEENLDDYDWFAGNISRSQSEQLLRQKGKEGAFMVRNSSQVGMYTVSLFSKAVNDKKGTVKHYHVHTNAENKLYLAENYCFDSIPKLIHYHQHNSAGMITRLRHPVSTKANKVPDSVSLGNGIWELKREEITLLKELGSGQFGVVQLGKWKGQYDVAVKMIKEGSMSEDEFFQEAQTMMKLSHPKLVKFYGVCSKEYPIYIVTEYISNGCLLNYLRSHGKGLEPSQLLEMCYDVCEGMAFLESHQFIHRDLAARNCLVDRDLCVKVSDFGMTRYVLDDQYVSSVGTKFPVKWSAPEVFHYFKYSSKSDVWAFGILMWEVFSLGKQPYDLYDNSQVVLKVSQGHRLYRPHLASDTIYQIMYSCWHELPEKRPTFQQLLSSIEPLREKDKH
Kind of test: Kinase selectivity screen BMX. The note with it: read-out: % inhibition of BMX.

In test [2] the target is FES (Homo sapiens, UniProt P07332). Kind of test: Kinase selectivity screen FES. The note with it: read-out: % inhibition of FES.
In test [3] the target is RAF1 (Homo sapiens, UniProt P04049). Kind of test: Kinase selectivity screen RAF1. The note with it: read-out: % inhibition of RAF1.
Test [4] concerns the target T2, TBK1 (Homo sapiens, UniProt Q9UHD2).
T2 sequence (Q9UHD2 1-729): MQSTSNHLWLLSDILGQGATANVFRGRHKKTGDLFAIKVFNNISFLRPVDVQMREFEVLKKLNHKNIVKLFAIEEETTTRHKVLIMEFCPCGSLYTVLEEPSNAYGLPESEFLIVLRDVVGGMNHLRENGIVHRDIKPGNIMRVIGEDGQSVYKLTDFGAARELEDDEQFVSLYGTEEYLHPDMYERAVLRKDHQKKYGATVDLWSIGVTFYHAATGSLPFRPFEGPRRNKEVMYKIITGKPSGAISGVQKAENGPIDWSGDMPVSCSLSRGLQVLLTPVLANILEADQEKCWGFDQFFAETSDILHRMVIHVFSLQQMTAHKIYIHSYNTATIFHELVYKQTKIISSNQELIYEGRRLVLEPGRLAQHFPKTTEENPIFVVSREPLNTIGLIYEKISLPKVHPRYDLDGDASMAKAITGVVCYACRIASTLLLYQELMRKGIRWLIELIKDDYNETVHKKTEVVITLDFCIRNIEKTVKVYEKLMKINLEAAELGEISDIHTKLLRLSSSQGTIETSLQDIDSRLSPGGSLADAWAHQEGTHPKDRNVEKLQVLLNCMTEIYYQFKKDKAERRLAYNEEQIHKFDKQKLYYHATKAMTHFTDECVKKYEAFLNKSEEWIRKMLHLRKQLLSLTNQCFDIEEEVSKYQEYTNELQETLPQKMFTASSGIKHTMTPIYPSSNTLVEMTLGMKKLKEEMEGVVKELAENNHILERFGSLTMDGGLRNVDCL
Kind of test: Kinase selectivity screen TBK1. The note with it: read-out: % inhibition of TBK1.

The target in test [5] is MYLK (Homo sapiens, UniProt Q15746). Kind of test: Kinase selectivity screen MYLK. The note with it: read-out: % inhibition of MYLK.
For test [6], the target named is PTK6 (Homo sapiens, UniProt Q13882). As to the kind of experiment: Kinase selectivity screen PTK6. The settings on record: read-out: % inhibition of PTK6.
The target in test [7] is STK10 (Homo sapiens, UniProt O94804). As to the kind of experiment: Kinase selectivity screen STK10. The note with it: read-out: % inhibition of STK10.
In test [8] the target is CaMK1 (Homo sapiens, UniProt Q14012). Kind of test: Kinase selectivity screen CaMK1. The note with it: read-out: % inhibition of CaMK1.
Test [9] addresses PRKCA (Homo sapiens, UniProt P17252). As to the kind of experiment: Kinase selectivity screen PRKCA. The settings on record: read-out: % inhibition of PRKCA.
The target of test [10] is ROCK1 (Homo sapiens, UniProt Q13464). As to the kind of experiment: Kinase selectivity screen ROCK1. The note with it: read-out: % inhibition of ROCK1.
The target in test [11] is T3, STK17A (Homo sapiens, UniProt Q9UEE5).
T3 sequence (Q9UEE5 1-414): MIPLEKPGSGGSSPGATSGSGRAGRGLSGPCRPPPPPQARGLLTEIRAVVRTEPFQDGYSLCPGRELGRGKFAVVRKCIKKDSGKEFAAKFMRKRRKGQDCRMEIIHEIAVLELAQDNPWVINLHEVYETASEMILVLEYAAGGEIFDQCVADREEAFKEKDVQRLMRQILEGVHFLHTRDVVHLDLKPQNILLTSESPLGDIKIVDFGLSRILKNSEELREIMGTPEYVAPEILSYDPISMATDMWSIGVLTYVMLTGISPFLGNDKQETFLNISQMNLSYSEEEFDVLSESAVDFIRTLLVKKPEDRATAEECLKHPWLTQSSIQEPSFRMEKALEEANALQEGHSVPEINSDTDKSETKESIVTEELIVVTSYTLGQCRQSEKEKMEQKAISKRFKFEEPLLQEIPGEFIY
Kind of test: Kinase selectivity screen STK17A. The settings on record: read-out: % inhibition of STK17A.

Test [12] addresses CDK1/CCNB1 (Homo sapiens, UniProt P06493). Kind of test: Kinase selectivity screen CDK1/CCNB1. The note with it: read-out: % inhibition of CDK1/CCNB1.

MYLK, sequence (Q15746 1425-1771): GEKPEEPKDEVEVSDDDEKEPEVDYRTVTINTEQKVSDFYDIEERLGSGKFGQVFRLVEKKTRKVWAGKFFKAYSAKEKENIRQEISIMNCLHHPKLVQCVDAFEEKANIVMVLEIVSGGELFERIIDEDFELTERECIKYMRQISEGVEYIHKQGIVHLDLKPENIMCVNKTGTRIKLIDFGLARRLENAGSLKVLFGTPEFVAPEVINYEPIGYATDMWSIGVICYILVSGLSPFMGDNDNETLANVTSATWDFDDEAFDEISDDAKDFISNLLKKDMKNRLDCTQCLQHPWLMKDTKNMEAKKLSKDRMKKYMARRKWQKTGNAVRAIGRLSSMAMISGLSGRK
CaMK1, sequence (Q14012 whole entry): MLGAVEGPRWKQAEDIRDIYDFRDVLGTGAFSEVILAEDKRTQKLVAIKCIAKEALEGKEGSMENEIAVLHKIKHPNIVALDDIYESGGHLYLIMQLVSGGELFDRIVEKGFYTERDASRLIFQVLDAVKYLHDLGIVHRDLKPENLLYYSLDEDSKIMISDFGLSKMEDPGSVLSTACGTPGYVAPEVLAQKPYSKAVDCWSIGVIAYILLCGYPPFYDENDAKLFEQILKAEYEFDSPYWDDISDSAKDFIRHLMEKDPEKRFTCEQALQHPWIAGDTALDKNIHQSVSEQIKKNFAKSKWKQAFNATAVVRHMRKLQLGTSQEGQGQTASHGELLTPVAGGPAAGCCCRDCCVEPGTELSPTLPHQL
CDK1/CCNB1, sequence (P06493 whole entry, species assumed): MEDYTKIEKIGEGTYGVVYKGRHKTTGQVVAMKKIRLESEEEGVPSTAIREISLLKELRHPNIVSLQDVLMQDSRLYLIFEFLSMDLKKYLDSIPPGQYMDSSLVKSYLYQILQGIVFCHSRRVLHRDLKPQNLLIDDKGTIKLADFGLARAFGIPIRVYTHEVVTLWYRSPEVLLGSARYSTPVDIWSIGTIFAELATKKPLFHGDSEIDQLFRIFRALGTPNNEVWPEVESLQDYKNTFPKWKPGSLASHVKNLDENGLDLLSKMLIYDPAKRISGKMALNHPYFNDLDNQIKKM
CDK1/CCNB1, sequence (P14635 whole entry partner, species assumed): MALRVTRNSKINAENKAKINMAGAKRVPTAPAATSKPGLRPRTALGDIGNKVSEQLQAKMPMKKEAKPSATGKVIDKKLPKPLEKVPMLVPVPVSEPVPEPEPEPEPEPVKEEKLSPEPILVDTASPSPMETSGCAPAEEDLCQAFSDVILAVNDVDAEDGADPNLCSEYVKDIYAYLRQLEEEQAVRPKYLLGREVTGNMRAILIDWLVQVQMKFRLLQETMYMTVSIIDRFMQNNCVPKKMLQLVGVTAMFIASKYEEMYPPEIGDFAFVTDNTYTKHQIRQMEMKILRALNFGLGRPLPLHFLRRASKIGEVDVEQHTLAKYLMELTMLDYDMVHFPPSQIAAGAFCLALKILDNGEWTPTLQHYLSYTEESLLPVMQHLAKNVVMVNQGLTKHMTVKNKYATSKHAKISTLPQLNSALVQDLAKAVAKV
STK10, sequence (O94804 whole entry, species assumed): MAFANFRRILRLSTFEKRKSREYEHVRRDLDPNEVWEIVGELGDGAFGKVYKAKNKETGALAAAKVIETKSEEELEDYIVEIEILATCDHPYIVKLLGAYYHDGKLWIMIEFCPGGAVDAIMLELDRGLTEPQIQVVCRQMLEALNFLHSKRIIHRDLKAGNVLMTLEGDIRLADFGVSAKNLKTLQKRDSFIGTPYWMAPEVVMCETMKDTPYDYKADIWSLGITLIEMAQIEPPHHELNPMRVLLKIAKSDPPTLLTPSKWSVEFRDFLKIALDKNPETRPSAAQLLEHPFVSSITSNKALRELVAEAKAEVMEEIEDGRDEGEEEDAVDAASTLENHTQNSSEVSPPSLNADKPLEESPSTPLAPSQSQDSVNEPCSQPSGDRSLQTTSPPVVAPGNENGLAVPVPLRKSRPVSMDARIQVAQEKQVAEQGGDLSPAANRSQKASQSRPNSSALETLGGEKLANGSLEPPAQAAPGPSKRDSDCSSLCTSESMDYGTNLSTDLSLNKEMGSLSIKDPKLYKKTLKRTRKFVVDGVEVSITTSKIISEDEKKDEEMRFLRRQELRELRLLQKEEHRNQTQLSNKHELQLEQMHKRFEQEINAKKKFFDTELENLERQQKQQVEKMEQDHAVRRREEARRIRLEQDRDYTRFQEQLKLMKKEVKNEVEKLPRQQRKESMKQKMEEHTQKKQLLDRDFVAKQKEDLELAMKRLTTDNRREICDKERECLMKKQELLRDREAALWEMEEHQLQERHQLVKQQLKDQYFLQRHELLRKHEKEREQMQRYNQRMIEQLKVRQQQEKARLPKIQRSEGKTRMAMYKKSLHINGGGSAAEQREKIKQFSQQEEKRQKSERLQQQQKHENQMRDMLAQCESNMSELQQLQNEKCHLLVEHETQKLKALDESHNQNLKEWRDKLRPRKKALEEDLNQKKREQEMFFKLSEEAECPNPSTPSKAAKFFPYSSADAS
ROCK1, sequence (Q13464 whole entry, species assumed): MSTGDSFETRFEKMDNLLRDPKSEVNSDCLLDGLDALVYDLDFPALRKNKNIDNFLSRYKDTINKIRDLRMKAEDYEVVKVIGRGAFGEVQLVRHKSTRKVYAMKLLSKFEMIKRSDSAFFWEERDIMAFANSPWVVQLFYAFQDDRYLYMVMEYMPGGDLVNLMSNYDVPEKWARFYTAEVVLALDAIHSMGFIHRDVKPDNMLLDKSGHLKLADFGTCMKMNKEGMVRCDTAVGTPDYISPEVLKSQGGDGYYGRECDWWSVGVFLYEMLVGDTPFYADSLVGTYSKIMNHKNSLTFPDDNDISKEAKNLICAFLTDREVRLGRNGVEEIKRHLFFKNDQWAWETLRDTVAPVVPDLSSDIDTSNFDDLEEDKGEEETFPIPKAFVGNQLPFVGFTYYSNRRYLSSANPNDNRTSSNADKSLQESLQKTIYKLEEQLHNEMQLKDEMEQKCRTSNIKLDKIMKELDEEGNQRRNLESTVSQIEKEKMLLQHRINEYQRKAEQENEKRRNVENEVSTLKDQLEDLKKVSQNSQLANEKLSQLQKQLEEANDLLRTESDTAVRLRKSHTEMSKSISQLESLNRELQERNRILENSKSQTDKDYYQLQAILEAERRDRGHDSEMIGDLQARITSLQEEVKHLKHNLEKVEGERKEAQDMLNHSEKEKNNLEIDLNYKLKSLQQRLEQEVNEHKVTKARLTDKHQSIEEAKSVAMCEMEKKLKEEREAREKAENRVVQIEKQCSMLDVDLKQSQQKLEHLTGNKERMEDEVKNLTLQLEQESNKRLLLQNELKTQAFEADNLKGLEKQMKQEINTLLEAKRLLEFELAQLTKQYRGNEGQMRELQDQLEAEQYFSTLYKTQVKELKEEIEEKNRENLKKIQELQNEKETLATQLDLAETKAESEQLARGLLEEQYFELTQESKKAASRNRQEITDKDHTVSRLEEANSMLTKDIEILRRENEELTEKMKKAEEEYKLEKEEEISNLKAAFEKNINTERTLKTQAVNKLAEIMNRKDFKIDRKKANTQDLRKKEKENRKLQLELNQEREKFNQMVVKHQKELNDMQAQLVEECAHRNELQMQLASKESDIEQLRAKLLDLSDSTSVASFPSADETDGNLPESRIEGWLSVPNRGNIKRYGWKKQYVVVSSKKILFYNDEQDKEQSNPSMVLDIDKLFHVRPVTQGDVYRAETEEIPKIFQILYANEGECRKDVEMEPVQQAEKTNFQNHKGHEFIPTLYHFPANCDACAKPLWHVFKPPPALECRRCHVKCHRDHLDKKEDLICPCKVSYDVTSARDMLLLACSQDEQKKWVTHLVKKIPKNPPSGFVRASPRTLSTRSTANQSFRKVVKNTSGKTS
PTK6, sequence (Q13882 whole entry, species assumed): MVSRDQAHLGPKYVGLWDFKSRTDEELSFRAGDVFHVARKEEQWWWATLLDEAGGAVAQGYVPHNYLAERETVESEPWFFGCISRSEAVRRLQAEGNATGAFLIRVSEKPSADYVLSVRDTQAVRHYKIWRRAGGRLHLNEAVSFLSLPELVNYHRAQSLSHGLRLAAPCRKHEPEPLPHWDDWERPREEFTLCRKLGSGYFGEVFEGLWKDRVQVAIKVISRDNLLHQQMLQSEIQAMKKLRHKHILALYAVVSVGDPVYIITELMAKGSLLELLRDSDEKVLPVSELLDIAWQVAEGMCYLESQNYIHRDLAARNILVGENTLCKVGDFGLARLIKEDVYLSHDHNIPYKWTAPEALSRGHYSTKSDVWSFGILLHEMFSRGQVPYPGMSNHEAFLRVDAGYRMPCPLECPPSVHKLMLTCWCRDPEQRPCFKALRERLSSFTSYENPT

On to `CN(C)CCCNC(=O)c1nc2c(N3CCc4cc(F)ccc43)ncnc2s1` [Example 64, N-[3-(dimethylamino)propyl]-7-(5-fluoroindolin-1-yl)thiazolo[5,4-d]pyrimidine-2-carboxamide], for which the inhibition at 1 µM stood at 6% in test [1]; 1% in test [2]; 0% in test [3]; 7% in [4]; 15% in test [5]; 4% in test [6]. The inhibition at 1 µM was found to be 81% in test [7]; 18% in test [8]; 0% in test [9]; 4% in test [10]; 70% in [11]; 4% in test [12].
On to `CC(C)Oc1cc(F)ccc1Nc1ncnc2sc(C(=O)NCC3CCNCC3)nc12` [Example 10, 7-(4-fluoro-2-isopropoxy-anilino)-N-(4-piperidylmethyl)thiazolo[5,4-d]pyrimidine-2-carboxamide], for which the inhibition at 1 µM in [1] came to 0%; in [2], 13%; in test [3], 0%; in test [4] it was 14%; in [5], 10%; in [6] it was 0%. The inhibition at 1 µM in test [7] stood at 28%; in test [8], 11%; in test [9] it was 8%; in test [10] it was 0%; in test [11], 2%; in test [12], 8%.
Regarding `O=C(NCC1CCNCC1)c1nc2c(N3CCc4cc(F)ccc43)ncnc2s1` [Example 58, 7-(5-fluoroindolin-1-yl)-N-(4-piperidylmethyl)thiazolo[5,4-d]pyrimidine-2-carboxamide], the inhibition at 1 µM in test [1] turned out to be 0%; in [2] it was 16%; in test [3] it was 1%; in test [4] it was 17%; in test [5] it was 15%; in test [6], 0%. In addition, the inhibition at 1 µM was determined as 71% in test [7]; 11% in test [8]; 0% in test [9]; 0% in [10]; 41% in [11]; 0% in test [12].
